18 compounds from article PMC5926251 (Japanese Journal of Cancer Research : Gann, 2000) can be followed below.

In one assay the target is T1, DNA polymerase α (Bos taurus, UniProt A0AAA9TD94).
T1 sequence (A0AAA9TD94 1-1441): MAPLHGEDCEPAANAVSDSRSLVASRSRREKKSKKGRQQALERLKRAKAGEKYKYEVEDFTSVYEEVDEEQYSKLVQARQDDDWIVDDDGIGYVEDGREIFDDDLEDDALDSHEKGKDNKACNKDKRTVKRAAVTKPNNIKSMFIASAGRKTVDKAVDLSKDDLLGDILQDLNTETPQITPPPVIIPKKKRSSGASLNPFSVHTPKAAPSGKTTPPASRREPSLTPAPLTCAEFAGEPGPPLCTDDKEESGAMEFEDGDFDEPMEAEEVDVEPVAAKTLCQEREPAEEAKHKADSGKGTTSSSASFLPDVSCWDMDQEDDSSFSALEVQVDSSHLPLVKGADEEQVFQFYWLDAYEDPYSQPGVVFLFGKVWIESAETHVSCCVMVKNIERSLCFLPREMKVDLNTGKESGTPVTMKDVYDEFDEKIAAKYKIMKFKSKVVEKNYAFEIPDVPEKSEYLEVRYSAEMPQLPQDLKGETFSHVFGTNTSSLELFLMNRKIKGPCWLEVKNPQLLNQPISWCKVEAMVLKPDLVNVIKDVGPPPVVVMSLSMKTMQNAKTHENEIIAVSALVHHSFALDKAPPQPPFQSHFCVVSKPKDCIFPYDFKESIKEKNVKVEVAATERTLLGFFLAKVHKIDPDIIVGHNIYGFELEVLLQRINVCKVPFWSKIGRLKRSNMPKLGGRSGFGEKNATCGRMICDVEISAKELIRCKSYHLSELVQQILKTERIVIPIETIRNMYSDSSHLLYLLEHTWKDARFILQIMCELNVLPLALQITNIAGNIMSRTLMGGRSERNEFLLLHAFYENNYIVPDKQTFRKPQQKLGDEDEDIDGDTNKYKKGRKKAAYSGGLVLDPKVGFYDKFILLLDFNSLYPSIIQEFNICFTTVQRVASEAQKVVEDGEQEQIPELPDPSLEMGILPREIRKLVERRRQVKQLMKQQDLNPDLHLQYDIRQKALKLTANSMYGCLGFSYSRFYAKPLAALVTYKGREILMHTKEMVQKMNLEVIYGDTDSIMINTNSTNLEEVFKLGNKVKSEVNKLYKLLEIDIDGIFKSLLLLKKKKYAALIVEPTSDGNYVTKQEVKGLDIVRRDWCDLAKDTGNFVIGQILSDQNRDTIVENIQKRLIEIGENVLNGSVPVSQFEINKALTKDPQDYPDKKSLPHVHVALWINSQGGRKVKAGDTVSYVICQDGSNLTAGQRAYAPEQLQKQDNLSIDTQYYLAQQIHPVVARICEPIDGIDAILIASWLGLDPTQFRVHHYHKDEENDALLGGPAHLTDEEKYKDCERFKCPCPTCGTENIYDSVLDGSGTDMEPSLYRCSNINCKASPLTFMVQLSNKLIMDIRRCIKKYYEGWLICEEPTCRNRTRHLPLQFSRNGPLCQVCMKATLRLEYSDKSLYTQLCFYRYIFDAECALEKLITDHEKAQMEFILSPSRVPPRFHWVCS
Nature of the assay: DNA polymerase assay, pol. α. The format is biochemical, calf. The settings on record: Table I; for pIC50: 50%-inhibitory concentration; for MIC Pol. α: Minimum inhibitory concentration: dose that resulted in inhibition of 80% or more of the activity.

The next assay has as its target DNA polymerase β (Rattus norvegicus, UniProt P06766). Nature of the assay: DNA polymerase assay, pol. β. The assay is classed as biochemical. The settings on record: for MIC Pol. β: Minimum inhibitory concentration: dose that resulted in inhibition of 80% or more of the activity.
Setting [1] is: read-out: IC50 Pol. β, 50%-inhibitory concentration, Table I.

pIC50: −log10 of the molar value. In brackets after ≈: the same amount, converted by molar mass. Several values for one entry are separate records, joined by “and”; a condition that tells them apart may be missing. Equal entries are not always repeated. Where two headings read alike, the source gives them in different places.

As a reminder, the pIC50 is the IC50 on a negative log10 scale, so that one unit is a factor of ten. With `CCCCCCCCCCCCCCCC(=O)O` [Palmitic acid (16:0), Palmitic acid, reference compound], the negative logarithm of the IC50 (pIC50) at DNA polymerase α (IC50 Pol. α) is 4.38; against DNA polymerase β it was 3.54. At DNA polymerase α, this compound registered an MIC Pol. α of 100 µM (≈ 25.6 µg/mL). Besides, the MIC Pol. β on DNA polymerase β (Table I) stood at 500 µM (≈ 128 µg/mL).

`C[C@H](O)[C@@H](O)[C@@H](O)[C@H](O)C=O` [II - Fucose - -, Fucose]: the pIC50 on DNA polymerase α (IC50 Pol. α) and on DNA polymerase β was < 3.00 throughout.

Regarding `CCCCCCCCCCCCCCCC(=O)OC[C@@H](O)CO[C@H]1O[C@H](CS(=O)(=O)O)[C@@H](O)[C@H](O)[C@H]1O` [C16--SQMG], the MIC Pol. α at DNA polymerase α was 9.1 µM and 14 µM. Besides, the pIC50 was 5.40 and 5.23 at DNA polymerase α (read-out: IC50 Pol. α); 4.47 and 4.44 at DNA polymerase β (setting [1]). For the same compound, the MIC Pol. β at DNA polymerase β (Table I) is 43 µM and 46 µM.

As for `C[C@@H]1OC(OCC(O)CO)[C@@H](O)[C@H](O)[C@@H]1O` (stereo partly drawn) [II&III - Fucose + -], the pIC50 at DNA polymerase α (read-out: IC50 Pol. α) and at DNA polymerase β (setting [1]) was < 3.00 each time.

Regarding `CCCCCCCCCCCCCCCCCC(=O)OCC(O)CO` (stereo not drawn) [III&IV - - + Stearic acid (18:0)/H], at DNA polymerase α, the MIC Pol. α is > 1000 µM. Besides, the pIC50 at DNA polymerase α (read-out: IC50 Pol. α) is 3.19; at DNA polymerase β (setting [1]), < 3.00.

On to `C[C@@H]1OC(OCC(O)CO)[C@H](O)[C@H](O)[C@H]1O` (stereo partly drawn) [II&III - Rhamnose + -], for which the negative logarithm of the IC50 (pIC50) on DNA polymerase α (read-out: IC50 Pol. α) and at DNA polymerase β (setting [1]) was < 3.00 throughout.

For the compound `O=S(=O)(O)C[C@H]1O[C@H](OCC(O)CO)[C@H](O)[C@@H](O)[C@@H]1O` (stereo partly drawn) [I&II&III + Quinovose + -], the pIC50 at DNA polymerase α (read-out: IC50 Pol. α) and at DNA polymerase β (setting [1]) was < 3.00 throughout.

Take `C[C@@H]1OC(O)[C@H](O)[C@H](O)[C@H]1O` (stereo partly drawn) [II - Rhamnose - -, Rhamnose]: the pIC50 on DNA polymerase α (read-out: IC50 Pol. α) and at DNA polymerase β (setting [1]) was < 3.00 throughout.

`CCCCCCCCCCCCCCCC(=O)OC[C@H](CO[C@H]1O[C@H](CS(=O)(=O)O)[C@@H](O)[C@H](O)[C@H]1O)OC(=O)CCCCCCCCCCCCCCC` [C16--SQDG]: the MIC Pol. α on DNA polymerase α is 3.4 µM and 3.6 µM. Moreover, on DNA polymerase β (Table I), the MIC Pol. β was 45 µM and 46 µM. Moreover, the negative logarithm of the IC50 (pIC50) at DNA polymerase β (setting [1]) was 4.60.

`CCCCCCCCCCCCCC(=O)O` [Myristic acid (14:0), Myristic acid, reference compound]: the values for the pIC50 on DNA polymerase α (IC50 Pol. α) and at DNA polymerase β were 4.02 and 3.36, respectively. In addition, the MIC Pol. α at DNA polymerase α amounted to 180 µM (≈ 41.1 µg/mL). Besides, the MIC Pol. β on DNA polymerase β (Table I) was > 1000 µM.

On to `CCCCCCCCCCCCCCCCCC(=O)O` [Stearic acid (18:0), Stearic acid, reference compound], for which the pIC50 against DNA polymerase α (IC50 Pol. α) is 4.92 and 5.10; on DNA polymerase β it was 3.89. Further, on DNA polymerase α, the MIC Pol. α amounted to 35 µM (≈ 9.96 µg/mL). Moreover, the MIC Pol. β at DNA polymerase β (Table I) turned out to be 250 µM (≈ 71.1 µg/mL).

Take `CCCCCCCCCCCCCC(=O)OCC(O)CO` (stereo not drawn) [III&IV - - + Myristic acid (14:0)/H]: the MIC Pol. α on DNA polymerase α was > 1000 µM. The pIC50 is 3.12 on DNA polymerase α (read-out: IC50 Pol. α) and < 3.00 at DNA polymerase β (setting [1]).

Consider `C[C@H]1OC(O)[C@H](O)[C@@H](O)[C@@H]1O` (stereo partly drawn) [II - Quinovose - -, Quinovose], for which the pIC50 against DNA polymerase α (IC50 Pol. α) and on DNA polymerase β was < 3.00 throughout.

Turning to `CCCCCCCCCCCCCCCC(=O)OCC(CO)OC(=O)CCCCCCCCCCCCCCC` (stereo not drawn), the MIC Pol. α on DNA polymerase α is > 1000 µM. The pIC50 was 3.33 at DNA polymerase α (read-out: IC50 Pol. α) and < 3.00 at DNA polymerase β (setting [1]).

Turning to `C[C@H]1OC(OCC(O)CO)[C@H](O)[C@@H](O)[C@@H]1O` (stereo partly drawn) [II&III - Quinovose + -], the negative logarithm of the IC50 (pIC50) on DNA polymerase α (read-out: IC50 Pol. α) and at DNA polymerase β (setting [1]) was < 3.00 throughout.

Turning to `CCCCCCCCCCCCCC(=O)OCC(CO)OC(=O)CCCCCCCCCCCCC` (stereo not drawn), on DNA polymerase α, the MIC Pol. α is > 1000 µM. Besides, the pIC50 at DNA polymerase α (read-out: IC50 Pol. α) was 3.26; at DNA polymerase β (setting [1]) it was < 3.00.

`O=S(=O)(O)C[C@@H]1OC(OCC(O)CO)[C@@H](O)[C@H](O)[C@@H]1O` (stereo partly drawn) [I&II&III + Fucose + -]: the pIC50 on DNA polymerase α (read-out: IC50 Pol. α) and on DNA polymerase β (setting [1]) was < 3.00 throughout.

Take `CCCCCCCCCCCCCC(=O)OC[C@H](CO[C@H]1O[C@H](CS(=O)(=O)O)[C@@H](O)[C@H](O)[C@H]1O)OC(=O)CCCCCCCCCCCCC` [C14--SQDG]: the MIC Pol. α on DNA polymerase α was 5.3 µM and 5.2 µM. Also, the pIC50 is 5.74 and 5.72 at DNA polymerase α (read-out: IC50 Pol. α); 4.64 and 4.70 at DNA polymerase β (setting [1]). For the same compound, the MIC Pol. β on DNA polymerase β (Table I) is 37 µM and 40 µM.
